Literature values as cited in US10058616B2, “Pharmaceutical compositions to reduce complications of ocular steroid” (TAIWAN LIPOSOME COMPANY, LTD., priority 2012, dated 2018).
Where two headings read alike, the source gives them in different places.

| Compound | progression of cataract, patients (patients; after intravitreal steroid injection) [%] | incidence of increased IOP after intravitreal steroid injection (patients; at 3 months) [%] | incidence of increased IOP after intravitreal steroid injection (patients; at 6 months) [%] | incidence of increased IOP after intravitreal steroid injection (patients; at one month) [%] | half-life in the vitreous humor |
| --- | --- | --- | --- | --- | --- |
| CC1(C)O[C@@H]2C[C@H]3[C@@H]4CCC5=CC(=O)C=C[C@]5(C)[C@@]4(F)[C@@H](O)C[C@]3(C)[C@]2(C(=O)CO)O1 [triamcinolone acetonide] | 22.72 | 75 | 47.05 | 57.69 | – |
| dexamethasone sodium phosphate [Non-associated DSP] | – | – | – | – | about 3.5 hours |
